The record followed here is US20250049970A1, “DLL3 TARGETING PEPTIDES AND CONSTRUCTS THEREOF” (MARIANA ONCOLOGY INC., priority 2023, published 2025).

Read-outs that look alike come from different tables or passages of the source. *1 amine or outer side, *2 acyl side, *3 side chain or, on linkers, in order; H or OH if unused. Where a SMILES comes first, the peptide text is derived from it. Bridges are numbered along the chain shown (N, C = ends). [ ]: non-standard residue; d: D form. The star is where a group is joined. Ala(1-CH2CO2H-4-piperidyl) = N[C@@H](CC1CCN(CC(=O)O)CC1)C(=O)O; Ala(piperidin-4-yl) = O=C([C@H](CC1CCN([*:3])CC1)N[*:1])[*:2]; DOTA = O=C(O)CN1CCN(CC(=O)O)CCN(CC(=O)*)CCN(CC(=O)O)CC1; X5 = O=C(Cc1ccc(Br)cc1)NCCOCCOCCOCCOCCOCCOCCOCCOCC(=O)*; Trp(7-OMe) = COc1cccc2c(C[C@H](N)C(=O)O)c[nH]c12; Phe(4-CF3) = N[C@@H](Cc1ccc(C(F)(F)F)cc1)C(=O)O; Trp(5-OH) = N[C@@H](Cc1c[nH]c2ccc(O)cc12)C(=O)O; 2Nal = N[C@@H](Cc1ccc2ccccc2c1)C(=O)O; NMetBuAla = CN[C@@H](CC(C)(C)C)C(=O)O; Nva(3-Et) = CCC(CC)[C@H](N)C(=O)O; Chg = N[C@H](C(=O)O)C1CCCCC1; NMeNle = CCCC[C@H](NC)C(=O)O; Dab = NCC[C@H](N)C(=O)O; CH2 = C([*:1])[*:2]

As a reminder, the Kd is the free concentration of one partner at which half of the binding sites on the other are occupied at equilibrium, for simple one-to-one binding.

The assay deals with T1, DLL3 (Homo sapiens, UniProt Q9NYJ7).
T1 sequence (Q9NYJ7 27-618): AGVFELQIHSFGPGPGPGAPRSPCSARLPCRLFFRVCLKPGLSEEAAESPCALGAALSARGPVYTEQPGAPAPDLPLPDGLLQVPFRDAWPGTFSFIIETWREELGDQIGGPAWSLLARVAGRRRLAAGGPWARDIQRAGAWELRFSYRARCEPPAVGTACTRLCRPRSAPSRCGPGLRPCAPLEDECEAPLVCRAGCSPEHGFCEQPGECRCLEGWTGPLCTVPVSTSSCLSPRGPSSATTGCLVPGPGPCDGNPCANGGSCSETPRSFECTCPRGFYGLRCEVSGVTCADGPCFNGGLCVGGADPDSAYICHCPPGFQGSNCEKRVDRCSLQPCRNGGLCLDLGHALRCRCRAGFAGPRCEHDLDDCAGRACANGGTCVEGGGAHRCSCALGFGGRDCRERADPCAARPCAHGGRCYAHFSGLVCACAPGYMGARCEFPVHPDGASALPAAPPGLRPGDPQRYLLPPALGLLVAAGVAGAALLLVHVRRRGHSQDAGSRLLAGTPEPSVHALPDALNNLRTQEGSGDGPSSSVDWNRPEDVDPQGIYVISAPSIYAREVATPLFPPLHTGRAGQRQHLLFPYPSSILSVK
Put plainly: SPR KD, biotinylated human DLL3 on streptavidin chip (Table 8). More on the design: biotin (biotinylated). As to conditions: biotinylated human DLL3 on streptavidin sensor chip, 25° C., 1:1 binding model. From the text: Biotinylated target ligand human DLL3 was immobilized on a streptavidin sensor chip. A reference surface was set up for nonspecific binding and refractive index changes. […] Sensorgram curves were fitted with 1:1 binding model, and affinity and kinetic parameters were obtained using Biacore Insight evaluation 4.0. software.

As to `CC[C@@H](C)[C@@H](NC(=O)[C@H](NC(=O)[C@@H](Cc1c[nH]c2ccccc12)NC(C)=O)[C@H](C)O)C(=O)N[C@H]1CC(=O)NCC[C@@H](C(=O)N[C@@H](Cc2c[nH]c3ccccc23)C(=O)N2CCC[C@H]2C(N)=O)NC(=O)[C@H](CC(=O)O)NC(=O)[C@H](Cc2c[nH]cn2)NC(=O)[C@H](Cc2c[nH]c3ccccc23)NC(=O)[C@H](CC(N)=O)NC(=O)[C@H](CC(N)=O)NC1=O` [compound 95, Ac-W-T-I-(L-Asp)*-N-N-W-H-D-(L-2,4-Dab)*-W-P-CONH2 (* denotes lactam between side chains between L-Asp and L-2,4-Dab)] (Ac-[dW][dT][dI]DNNWHD[Dab]WP-NH2; lactam 4-10), for the setting “read-out: SPR KD”, the Kd is 100 to 300 nM.
On the same count and under the same terms, in the case of `CC[C@H](C)[C@H](NC(=O)[C@@H](NC(=O)[C@H](Cc1c[nH]c2ccccc12)NC(C)=O)[C@@H](C)O)C(=O)N[C@H]1CSCSC[C@@H](C(=O)N[C@@H](Cc2c[nH]c3ccccc23)C(=O)N2CCC[C@H]2C(N)=O)NC(=O)[C@H](CC(=O)O)NC(=O)[C@H](Cc2cnc[nH]2)NC(=O)[C@H](Cc2c[nH]c3ccccc23)NC(=O)[C@H](CC(N)=O)NC(=O)[C@H](CC(N)=O)NC1=O` [compound 343] (Ac-WTICNNWHDCWP-NH2; linker 4-10 via CH2) it was 10 to 100 nM; in that of `CSCC[C@H](NC(C)=O)C(=O)N[C@@H](Cc1c[nH]c2ccccc12)C(=O)N[C@H](C(=O)N[C@@H](Cc1ccc2ccccc2c1)C(=O)N[C@H]1CSSC[C@@H](C(=O)N[C@@H](Cc2c[nH]c3ccccc23)C(=O)N2CCC[C@H]2C(N)=O)NC(=O)[C@H](CC(=O)O)NC(=O)[C@H](Cc2cnc[nH]2)NC(=O)[C@H](Cc2c[nH]c3ccccc23)NC(=O)[C@H](CC(N)=O)NC(=O)[C@H](CC(N)=O)NC1=O)[C@@H](C)O` [compound 46, Ac-M-W-T-(2Nal)-C(3)-N-N-W-H-D-C(3)-W-P-CONH2] (Ac-MWT[2Nal]CNNWHDCWP-NH2; disulfide 5-11), 10 to 100 nM.
On the same count and under the same terms, then `CC[C@H](C)[C@H](NC(=O)[C@@H](NC(=O)[C@H](Cc1c[nH]c2ccccc12)NC(=O)[C@H](CCSC)NC(C)=O)[C@@H](C)O)C(=O)N[C@H]1CSSC[C@@H](C(=O)N[C@@H](Cc2c[nH]c3ccccc23)C(=O)N2CCC[C@H]2C(N)=O)NC(=O)[C@H](CC(=O)O)NC(=O)[C@H](C)NC(=O)[C@H](Cc2c[nH]c3ccccc23)NC(=O)[C@H](CC(N)=O)NC(=O)[C@H](CC(N)=O)NC1=O` [compound 36, Ac-M-W-T-I-C(3)-N-N-W-(L-Ala)-D-C(3)-W-P-CONH2] (Ac-MWTICNNWADCWP-NH2; disulfide 5-11), with 10 to 100 nM; and `CCC(CC)[C@H](NC(=O)[C@@H](NC(=O)[C@H](Cc1c[nH]c2ccccc12)NC(C)=O)[C@@H](C)O)C(=O)N[C@H]1CSSC[C@@H](C(=O)N[C@@H](Cc2c[nH]c3ccccc23)C(=O)N2CCC[C@H]2C(N)=O)NC(=O)[C@H](CC(=O)O)NC(=O)[C@H](Cc2cnc[nH]2)NC(=O)[C@H](Cc2c[nH]c3ccccc23)NC(=O)[C@H](CC(N)=O)NC(=O)[C@H](CC(N)=O)NC1=O` [compound 337, Ac-W-T-(Env)-C(3)-N-N-W-H-D-C(3)-W-P-CONH2] (Ac-WT[Nva(3-Et)]CNNWHDCWP-NH2; disulfide 4-10), with 1 to 10 nM.
Consider `CC(=O)N[C@@H](Cc1c[nH]c2ccccc12)C(=O)N[C@H](C(=O)N[C@H](C(=O)N[C@H]1CSSC[C@@H](C(=O)N[C@@H](Cc2c[nH]c3ccccc23)C(=O)N2CCC[C@H]2C(=O)N[C@H](CCCCNC(=O)COCCOCCOCCOCCOCCOCCOCCOCCNC(=O)Cc2ccc(Br)cc2)C(N)=O)NC(=O)[C@H](CC(=O)O)NC(=O)[C@H](CCCCNC(=O)CN2CCN(CC(=O)O)CCN(CC(=O)O)CCN(CC(=O)O)CC2)NC(=O)[C@H](Cc2ccc3ccccc3c2)NC(=O)[C@H](CC(N)=O)NC(=O)[C@H](CC2CCNCC2)NC1=O)C1CCCCC1)[C@@H](C)O` [compound 421] (Ac-WT[Chg]C[Ala(piperidin-4-yl)]N[2Nal]K(DOTA)DCWP[dK](X5)-NH2; disulfide 4-10), for which, for the setting “SPR KD”, the equilibrium dissociation constant (Kd) was under 1 nM.
In the case of `CC[C@H](C)[C@H](NC(=O)[C@@H](NC(=O)[C@H](Cc1c[nH]c2ccc(O)cc12)NC(C)=O)[C@@H](C)O)C(=O)N[C@H]1CSSC[C@@H](C(=O)N[C@@H](Cc2c[nH]c3ccccc23)C(=O)N2CCC[C@H]2C(N)=O)NC(=O)[C@H](CC(=O)O)NC(=O)[C@H](Cc2c[nH]cn2)NC(=O)[C@H](Cc2c[nH]c3ccccc23)NC(=O)[C@H](CC(N)=O)NC(=O)[C@H](CC(N)=O)NC1=O` [compound 27, Ac-(5OH-W)-T-I-C(3)-N-N-W-H-D-C(3)-W-P-CONH2] (Ac-[Trp(5-OH)]TICNNWHDCWP-NH2; disulfide 4-10), the dissociation constant Kd (read-out: SPR KD) lay within 10 to 100 nM.
Still for that read-out and setting: in the case of `CSCC[C@H](NC(C)=O)C(=O)N[C@@H](Cc1c[nH]c2ccccc12)C(=O)N[C@H](C(=O)N[C@H](C(=O)N[C@H]1CSSC[C@@H](C(=O)N[C@@H](Cc2c[nH]c3ccccc23)C(=O)N2CCC[C@H]2C(N)=O)NC(=O)[C@H](CC(=O)O)NC(=O)[C@H](Cc2cnc[nH]2)NC(=O)[C@H](Cc2c[nH]c3ccccc23)NC(=O)[C@H](CC(N)=O)NC(=O)[C@H](CC(N)=O)NC1=O)C1CCCCC1)[C@@H](C)O` [compound 44, Ac-M-W-T-(Chg)-C(3)-N-N-W-H-D-C(3)-W-P-CONH2] (Ac-MWT[Chg]CNNWHDCWP-NH2; disulfide 5-11) it was 1 to 10 nM.
Still for that read-out and setting: then `CC[C@H](C)[C@H](NC(=O)[C@@H](NC(=O)[C@H](Cc1ccc(C(F)(F)F)cc1)NC(C)=O)[C@@H](C)O)C(=O)N[C@H]1CSSC[C@@H](C(=O)N[C@@H](Cc2c[nH]c3ccccc23)C(=O)N2CCC[C@H]2C(N)=O)NC(=O)[C@H](CC(=O)O)NC(=O)[C@H](Cc2cnc[nH]2)NC(=O)[C@H](Cc2c[nH]c3ccccc23)NC(=O)[C@H](CC(N)=O)NC(=O)[C@H](CC(N)=O)NC1=O` [compound 215, Ac-(4CF3-F)-T-I-C(3)-N-N-W-H-D-C(3)-W-P-CONH2] (Ac-[Phe(4-CF3)]TICNNWHDCWP-NH2; disulfide 4-10), with 10 to 100 nM.
For the molecule `CC[C@H](C)[C@H](NC(=O)[C@@H](NC(=O)[C@H](Cc1c[nH]c2ccccc12)NC(=O)[C@H](CCSC)NC(C)=O)[C@@H](C)O)C(=O)N[C@H]1CSSC[C@@H](C(=O)N[C@@H](Cc2c[nH]c3ccccc23)C(=O)N2CCC[C@H]2C(N)=O)NC(=O)[C@H](CC(=O)O)NC(=O)[C@H](Cc2cnc[nH]2)NC(=O)[C@H](Cc2c[nH]c3ccccc23)NC(=O)[C@H](CC(N)=O)NC(=O)[C@H](C)NC1=O` [compound 15, Ac-M-W-T-I-C(3)-(L-Ala)-N-W-H-D-C(3)-W-P-CONH2] (Ac-MWTICANWHDCWP-NH2; disulfide 5-11), under “read-out: SPR KD”, the Kd was in the range of 1 to 10 nM.
The same measure, in the same setting: then `CC(=O)N[C@@H](Cc1c[nH]c2ccccc12)C(=O)N[C@H](C(=O)N(C)[C@@H](CC(C)(C)C)C(=O)N[C@H]1CSCSC[C@@H](C(=O)N[C@@H](Cc2c[nH]c3ccccc23)C(=O)N2CCC[C@H]2C(N)=O)NC(=O)[C@H](CC(=O)O)NC(=O)[C@H](CCCCNC(=O)CN2CCN(CC(=O)O)CCN(CC(=O)O)CCN(CC(=O)O)CC2)NC(=O)[C@H](Cc2ccc3ccccc3c2)NC(=O)[C@H](CC(N)=O)NC(=O)[C@H](CC2CCN(CC(=O)O)CC2)NC1=O)[C@@H](C)O` [compound 447] (Ac-WT[NMetBuAla]C[Ala(1-CH2CO2H-4-piperidyl)]N[2Nal]K(DOTA)DCWP-NH2; linker 4-10 via CH2), with under 1 nM.
Same read-out and setting: then `CCCC[C@@H](C(=O)N[C@H]1CSSC[C@@H](C(=O)N[C@@H](Cc2c[nH]c3ccccc23)C(=O)N2CCC[C@H]2C(N)=O)NC(=O)[C@H](CC(=O)O)NC(=O)[C@H](CCCCNC(=O)CN2CCN(CC(=O)O)CCN(CC(=O)O)CCN(CC(=O)O)CC2)NC(=O)[C@H](Cc2ccc3ccccc3c2)NC(=O)[C@H](CC(N)=O)NC(=O)[C@H](CC2CCNCC2)NC1=O)N(C)C(=O)[C@@H](NC(=O)[C@H](Cc1c[nH]c2c(OC)cccc12)NC(C)=O)[C@@H](C)O` [compound 422, Ac-(7MeO-Trp)-T-(NMe-Nle)-C(3)-[3-(4piperdinyl)-Ala]-N-(2Nal)-Lys(DOTA)-D-C(3)-W-P-CONH2] (Ac-[Trp(7-OMe)]T[NMeNle]C[Ala(piperidin-4-yl)]N[2Nal]K(DOTA)DCWP-NH2; disulfide 4-10), with under 1 nM.
Take `CC(=O)N[C@@H](Cc1c[nH]c2ccccc12)C(=O)N[C@H](C(=O)N[C@H](C(=O)N[C@H]1CSCSC[C@@H](C(=O)N[C@@H](Cc2c[nH]c3ccccc23)C(=O)N2CCC[C@H]2C(=O)N[C@H](CCCCNC(=O)COCCOCCOCCOCCOCCOCCOCCOCCNC(=O)Cc2ccc(Br)cc2)C(N)=O)NC(=O)[C@H](CC(=O)O)NC(=O)[C@H](CCCCNC(=O)CN2CCN(CC(=O)O)CCN(CC(=O)O)CCN(CC(=O)O)CC2)NC(=O)[C@H](Cc2ccc3ccccc3c2)NC(=O)[C@H](CC(N)=O)NC(=O)[C@H](CC2CCNCC2)NC1=O)C1CCCCC1)[C@@H](C)O` [compound 418] (Ac-WT[Chg]C[Ala(piperidin-4-yl)]N[2Nal]K(DOTA)DCWP[dK](X5)-NH2; linker 4-10 via CH2): the dissociation constant (Kd) (read-out: SPR KD) was under 1 nM.
